Values joined by “and” are separate entries in the source; they are usually repeats but may differ in a detail not shown here. Identical values can stand only once. Toxic doses and inconclusive results are not listed. The calls were made as follows: active = survival T/C of 150% or more; inactive = T/C below 125% in these data.
System: CD2F1 mice, L1210 leukemia ip, survival T/C
Test: NCI In Vivo Anticancer Drug Screen. Data for tumor model L1210 Leukemia (intraperitoneal) in CD2F1 (CDF1) mice
Settings: endpoint: mean survival time, higher = longer survival
Summary of the method: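 Read-out first: treated-group measurement over vehicle-control measurement, expressed as a ratio. Animals bore a transplanted tumor line and were dosed with compound or vehicle.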

[1] = dose: 75.0 mg/kg/injection, schedule: Q01DX001 (ip), vehicle: saline
[2] = dose: 150.0 mg/kg/injection, schedule: Q01DX001 (ip), vehicle: saline
[3] = dose: 300.0 mg/kg/injection, schedule: Q01DX001 (ip), vehicle: saline
[4] = dose: 25.0 mg/kg/injection, schedule: Q01DX009 (ip), vehicle: saline with Tween-80
[5] = dose: 50.0 mg/kg/injection, schedule: Q01DX009 (ip), vehicle: saline with Tween-80
[6] = dose: 100.0 mg/kg/injection, schedule: Q01DX001 (ip), vehicle: saline with Tween-80
[7] = dose: 100.0 mg/kg/injection, schedule: Q01DX009 (ip), vehicle: saline with Tween-80
[8] = dose: 200.0 mg/kg/injection, schedule: Q01DX001 (ip), vehicle: saline with Tween-80
[9] = dose: 200.0 mg/kg/injection, schedule: Q01DX009 (ip), vehicle: saline with Tween-80
[10] = dose: 400.0 mg/kg/injection, schedule: Q01DX001 (ip), vehicle: saline with Tween-80
[11] = dose: 400.0 mg/kg/injection, schedule: Q01DX009 (ip), vehicle: saline with Tween-80
[12] = dose: 100.0 mg/kg/injection, schedule: Q04DX003 (ip), vehicle: saline with Tween-80
[13] = dose: 200.0 mg/kg/injection, schedule: Q04DX003 (ip), vehicle: saline with Tween-80
[14] = dose: 400.0 mg/kg/injection, schedule: Q04DX003 (ip), vehicle: saline with Tween-80
[15] = dose: 12.5 mg/kg/injection, schedule: Q01DX009 (ip), vehicle: Klucel (hydroxypropylcellulose) (HPC)
[16] = dose: 25.0 mg/kg/injection, schedule: Q01DX009 (ip), vehicle: Klucel (hydroxypropylcellulose) (HPC)
[17] = dose: 50.0 mg/kg/injection, schedule: Q01DX009 (ip), vehicle: Klucel (hydroxypropylcellulose) (HPC)
[18] = dose: 100.0 mg/kg/injection, schedule: Q01DX009 (ip), vehicle: Klucel (hydroxypropylcellulose) (HPC)

Measured: T/C

COc1ccc(CCN)cc1O
inactive: [1] 98 % of control | [2] 98 % of control | [3] 98 % of control

OC(O)(C(F)(F)F)C(F)(F)F
inactive: dose: 50.0 mg/kg/injection, schedule: Q01DX005 (ip), vehicle: saline 103 % of control | dose: 100.0 mg/kg/injection, schedule: Q01DX005 (ip), vehicle: saline 91 % of control | dose: 100.0 mg/kg/injection, schedule: Q04DX002 (ip), vehicle: saline 103 % of control | dose: 200.0 mg/kg/injection, schedule: Q04DX002 (ip), vehicle: saline 109 % of control

CC(C)C1=CC2=CCC3C(C)(C(=O)O)CCCC3(C)C2CC1 (stereo unspecified)
inactive: [4] 103 % of control | [5] 98 % of control | [6] 98 % of control | [7] 96 % of control | [8] 95 % of control | [9] 96 % of control | [10] 102 % of control | [11] 97 % of control

Cc1ccc(S(=O)(=O)NC(CSCc2ccccc2)C(=O)O)cc1 (stereo unspecified)
inactive: [12] 94 % of control | [13] 93 % of control | [14] 95 % of control

CN=NNc1ccc(C(=O)NC(C)C)cc1
inactive: dose: 25.0 mg/kg/injection, schedule: Q01DX009 (ip), vehicle: DMSO 112 % of control | dose: 25.0 mg/kg/injection, schedule: Q01DX009 (ip), vehicle: other 110 % of control | dose: 50.0 mg/kg/injection, schedule: Q01DX009 (ip), vehicle: DMSO 114 % of control | dose: 50.0 mg/kg/injection, schedule: Q01DX009 (ip), vehicle: other 102 % of control and 109 % of control | dose: 100.0 mg/kg/injection, schedule: Q01DX009 (ip), vehicle: other 107 % of control | dose: 200.0 mg/kg/injection, schedule: Q01DX009 (ip), vehicle: DMSO 86 % of control

COc1ccc(OC)c(NC(=O)Oc2ccc(F)cc2Cl)c1
inactive: [7] 101 % of control | [9] 104 % of control | [11] 102 % of control

CCOc1cc2ccc3c4cc(OC)c(OC)cc4c[n+](C)c3c2cc1OCC
inactive: dose: 25.0 mg/kg/injection, schedule: Q04DX002 (ip), vehicle: saline with Tween-80 107 % of control | dose: 50.0 mg/kg/injection, schedule: Q04DX002 (ip), vehicle: saline with Tween-80 111 % of control | dose: 100.0 mg/kg/injection, schedule: Q04DX002 (ip), vehicle: saline with Tween-80 103 % of control

CCOC(=O)c1sc(=S)[nH]c1C
inactive: [9] 89 % of control | [11] 87 % of control

CC/C=C(\C)C(CCC)(CN=O)C(=O)OCC (stereo unspecified)
inactive: [1] 101 % of control | [2] 97 % of control | [3] 95 % of control

O=S(=O)(N/N=C/c1ccncc1)c1ccccc1
inactive: dose: 12.5 mg/kg/injection, schedule: Q04DX003 (ip), vehicle: water 98 % of control | dose: 25.0 mg/kg/injection, schedule: Q04DX003 (ip), vehicle: water 98 % of control | dose: 50.0 mg/kg/injection, schedule: Q04DX003 (ip), vehicle: water 104 % of control | dose: 100.0 mg/kg/injection, schedule: Q04DX003 (ip), vehicle: water 106 % of control | dose: 200.0 mg/kg/injection, schedule: Q04DX003 (ip), vehicle: water 112 % of control | dose: 400.0 mg/kg/injection, schedule: Q04DX003 (ip), vehicle: water 108 % of control

Cc1ccc(Nc2ncnc3c2ncn3C2OC(CO)C(O)C2O)cc1 (stereo unspecified)
inactive: dose: 12.5 mg/kg/injection, schedule: Q01DX005 (ip), vehicle: distilled water + Tween-80 94 % of control | dose: 25.0 mg/kg/injection, schedule: Q01DX005 (ip), vehicle: distilled water + Tween-80 94 % of control | dose: 50.0 mg/kg/injection, schedule: Q01DX005 (ip), vehicle: distilled water + Tween-80 94 % of control | dose: 100.0 mg/kg/injection, schedule: Q01DX005 (ip), vehicle: distilled water + Tween-80 96 % of control | dose: 200.0 mg/kg/injection, schedule: Q01DX005 (ip), vehicle: distilled water + Tween-80 94 % of control

CC[N+]1(Cc2ccccc2)CC2(CCCCC2)ON2C1CC(C)C2(C)C (stereo unspecified)
inactive: [4] 92 % of control | [5] 93 % of control

CC(=O)C1CCOC1=O (stereo unspecified)
inactive: dose: 100.0 mg/kg/injection, schedule: Q04DX003 (ip), vehicle: saline 96 % of control | dose: 200.0 mg/kg/injection, schedule: Q04DX003 (ip), vehicle: saline 104 % of control | dose: 400.0 mg/kg/injection, schedule: Q04DX003 (ip), vehicle: saline 98 % of control

CC(C)(C)C(=O)CC(=O)C(C)(C)C.CC(C)(C)C(=O)CC(=O)C(C)(C)C.CC(C)(C)C(=O)CC(=O)C(C)(C)C.[La]
inactive: [12] 94 % of control | [13] 101 % of control | [14] 97 % of control

COc1ccc(-c2nc(C)cc3cc(OC)c(OC)cc23)cc1OC
inactive: dose: 12.5 mg/kg/injection, schedule: Q01DX009 (ip), vehicle: water 94 % of control | dose: 25.0 mg/kg/injection, schedule: Q01DX009 (ip), vehicle: water 94 % of control | dose: 50.0 mg/kg/injection, schedule: Q01DX009 (ip), vehicle: water 91 % of control | dose: 100.0 mg/kg/injection, schedule: Q01DX009 (ip), vehicle: water 89 % of control

CC(=O)OC1=NC(C)c2c1cc(OC(C)=O)[nH]c2=O (stereo unspecified)
inactive: dose: 6.25 mg/kg/injection, schedule: Q01DX009 (ip), vehicle: Klucel (hydroxypropylcellulose) (HPC) 104 % of control and 107 % of control | [15] 101 % of control and 106 % of control | [16] 104 % of control and 110 % of control | [17] 100 % of control and 101 % of control | [18] 113 % of control and 102 % of control

CC(C)OC(=O)Nc1ccc(Cl)cc1
inactive: [12] 97 % of control | [13] 97 % of control | [14] 100 % of control

CC1=CC=CC(C)(C(Cl)Cl)C1=O (stereo unspecified)
inactive: [5] 97 % of control | [7] 89 % of control | [12] 96 % of control | [13] 103 % of control | dose: 1200.0 mg/kg/injection, schedule: Q01DX009 (ip), vehicle: saline with Tween-80 93 % of control

O=C(Nc1ccc2c3c(cccc13)CC2)c1cccc([N+](=O)[O-])c1
inactive: [7] 94 % of control | [9] 95 % of control | [11] 97 % of control

O=C(O)/C=C/C(=O)Nc1ccc(I)cc1
inactive: [7] 95 % of control | [12] 104 % of control | [9] 111 % of control | [13] 98 % of control | [14] 97 % of control

O=C(NCCCl)Nc1cccc(Cl)c1
inactive: [6] 87 % of control | [8] 102 % of control | [10] 90 % of control

O=C(O)c1cc(Cl)c(C(=O)O)cc1Cl
inactive: [12] 96 % of control | [13] 102 % of control | [14] 105 % of control

COc1cc2ccc3cnccc3c2cc1OC
inactive: [15] 100 % of control | [16] 92 % of control | [17] 94 % of control | [18] 94 % of control | dose: 200.0 mg/kg/injection, schedule: Q01DX009 (ip), vehicle: Klucel (hydroxypropylcellulose) (HPC) 100 % of control

Nc1ccccc1SC1CC(=O)N(c2ccccc2Cl)C1=O (stereo unspecified)
inactive: [12] 93 % of control | [13] 89 % of control | [14] 89 % of control

COC(=O)CC1(C(=O)OC)Nc2cc(Cl)c(Cl)cc2S(=O)(=O)N1O (stereo unspecified)
inactive: [6] 106 % of control | [8] 94 % of control | [10] 94 % of control

Reference: PubChem BioAssay AID256 (DTP/NCI, 2004)
